Measured values published in ChEMBL document CHEMBL1151840, “Synthetic oligoribonucleotides containing arabinonucleotides act as agonists of TLR7 and 8” (Bioorg Med Chem Lett, 2009).
Calls of active or inactive are those of the source. The rule behind the calls is not given here.

How the values were obtained:
[1] = Stability in human serum assessed as full-length compound remaining after 10 mins by anion-exchange HPLC; assay type: ADME, cell-free; conditions: read-out: Stability
PBMC [2] = test: Stimulation of immune response in human PBMC assessed as induction of IL12 production at 150 ug/ml after 24 hrs; assay type: functional, cell-based
PBMC [3] = test: Stimulation of immune response in human PBMC assessed as induction of RANTES production at 150 ug/ml after 24 hrs; assay type: functional, cell-based
Homo sapiens [4] = species on record: Homo sapiens; test: Stimulation of immune response in human pDC assessed as induction of TNFalpha production at 150 ug/ml after 24 hrs; assay type: functional
PBMC [5] = test: Stimulation of immune response in human PBMC assessed as induction of IL8 production at 150 ug/ml after 24 hrs; assay type: functional, cell-based
PBMC [6] = test: Stimulation of immune response in human PBMC assessed as induction of MIP1alpha production at 150 ug/ml after 24 hrs; assay type: functional, cell-based
PBMC [7] = test: Stimulation of immune response in human PBMC assessed as induction of IL1-beta production at 150 ug/ml after 24 hrs; assay type: functional, cell-based
PBMC [8] = test: Stimulation of immune response in human PBMC assessed as induction of IL10 production at 150 ug/ml after 24 hrs; assay type: functional, cell-based
PBMC [9] = test: Stimulation of immune response in human PBMC assessed as induction of MCP1 production at 150 ug/ml after 24 hrs; assay type: functional, cell-based
PBMC [10] = test: Stimulation of immune response in human PBMC assessed as induction of TNFalpha production at 150 ug/ml after 24 hrs; assay type: functional, cell-based
Homo sapiens [11] = species on record: Homo sapiens; test: Stimulation of immune response in human pDC assessed as induction of IFN-gamma production at 150 ug/ml after 24 hrs; assay type: functional
Homo sapiens [12] = species on record: Homo sapiens; test: Stimulation of immune response in human pDC assessed as induction of MIP1alpha production at 150 ug/ml after 24 hrs; assay type: functional
PBMC [13] = test: Stimulation of immune response in human PBMC assessed as induction of IFN-gamma production at 150 ug/ml after 24 hrs; assay type: functional, cell-based
Mus musculus = test: Stimulation of immune response in C57BL/6 mouse assessed as induction of serum IL12 production at 50 mg/kg, sc after 2 hrs by luminex multiplex assay; assay type: functional, organism-based; set-up: dose 50 mg/kg
PBMC [14] = test: Stimulation of immune response in human PBMC assessed as induction of IFNalpha production at 150 ug/ml after 24 hrs; assay type: functional, cell-based
[15] = target: T1, Toll-like receptor 8 (Homo sapiens) (UniProt Q9NR97); test: Agonist activity at human TLR8 expressed in HEK293XL cells assessed as NF-kappaB activation after 18 hrs; assay type: functional, cell-based
T1 sequence (whole entry): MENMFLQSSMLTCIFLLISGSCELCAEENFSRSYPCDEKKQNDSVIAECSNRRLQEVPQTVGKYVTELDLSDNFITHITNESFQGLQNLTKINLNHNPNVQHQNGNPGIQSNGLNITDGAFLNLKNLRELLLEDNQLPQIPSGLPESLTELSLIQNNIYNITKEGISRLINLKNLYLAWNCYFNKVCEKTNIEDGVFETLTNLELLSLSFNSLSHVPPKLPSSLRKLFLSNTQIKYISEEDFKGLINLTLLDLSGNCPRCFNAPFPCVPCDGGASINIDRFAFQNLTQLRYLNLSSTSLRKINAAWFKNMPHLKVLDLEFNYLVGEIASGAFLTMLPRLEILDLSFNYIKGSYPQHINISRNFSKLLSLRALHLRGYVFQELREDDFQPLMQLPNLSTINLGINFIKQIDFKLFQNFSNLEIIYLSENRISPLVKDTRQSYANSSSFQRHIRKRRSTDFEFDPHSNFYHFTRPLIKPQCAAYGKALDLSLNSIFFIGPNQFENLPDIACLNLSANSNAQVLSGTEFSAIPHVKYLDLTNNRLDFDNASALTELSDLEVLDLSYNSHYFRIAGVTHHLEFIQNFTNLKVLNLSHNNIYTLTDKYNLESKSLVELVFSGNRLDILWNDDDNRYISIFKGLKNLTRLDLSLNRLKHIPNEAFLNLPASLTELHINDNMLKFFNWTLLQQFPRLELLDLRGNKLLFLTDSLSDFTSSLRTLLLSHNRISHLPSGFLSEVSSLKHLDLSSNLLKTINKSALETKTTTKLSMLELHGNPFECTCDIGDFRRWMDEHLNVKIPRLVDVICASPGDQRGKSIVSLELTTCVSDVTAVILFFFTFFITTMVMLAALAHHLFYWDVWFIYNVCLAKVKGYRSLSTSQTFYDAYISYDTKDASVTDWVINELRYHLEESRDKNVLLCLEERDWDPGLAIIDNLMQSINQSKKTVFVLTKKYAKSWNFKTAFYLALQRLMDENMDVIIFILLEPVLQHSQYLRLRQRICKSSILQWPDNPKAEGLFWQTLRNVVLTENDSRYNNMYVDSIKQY

Homo sapiens [16] = species on record: Homo sapiens; test: Stimulation of immune response in human pDC assessed as induction of MIP1beta production at 150 ug/ml after 24 hrs; assay type: functional
PBMC [17] = test: Stimulation of immune response in human PBMC assessed as induction of MIP1beta production at 150 ug/ml after 24 hrs; assay type: functional, cell-based
Homo sapiens [18] = species on record: Homo sapiens; test: Stimulation of immune response in human pDC assessed as induction of IL12 production at 150 ug/ml after 24 hrs; assay type: functional
PBMC [19] = test: Stimulation of immune response in human PBMC assessed as induction of IL2R level at 150 ug/ml after 24 hrs; assay type: functional, cell-based
[20] = target: T2, Toll-like receptor 7 (Homo sapiens) (UniProt Q9NYK1); test: Agonist activity at human TLR7 expressed in HEK293XL cells assessed as NF-kappaB activation after 18 hrs; assay type: functional, cell-based
T2 sequence (whole entry): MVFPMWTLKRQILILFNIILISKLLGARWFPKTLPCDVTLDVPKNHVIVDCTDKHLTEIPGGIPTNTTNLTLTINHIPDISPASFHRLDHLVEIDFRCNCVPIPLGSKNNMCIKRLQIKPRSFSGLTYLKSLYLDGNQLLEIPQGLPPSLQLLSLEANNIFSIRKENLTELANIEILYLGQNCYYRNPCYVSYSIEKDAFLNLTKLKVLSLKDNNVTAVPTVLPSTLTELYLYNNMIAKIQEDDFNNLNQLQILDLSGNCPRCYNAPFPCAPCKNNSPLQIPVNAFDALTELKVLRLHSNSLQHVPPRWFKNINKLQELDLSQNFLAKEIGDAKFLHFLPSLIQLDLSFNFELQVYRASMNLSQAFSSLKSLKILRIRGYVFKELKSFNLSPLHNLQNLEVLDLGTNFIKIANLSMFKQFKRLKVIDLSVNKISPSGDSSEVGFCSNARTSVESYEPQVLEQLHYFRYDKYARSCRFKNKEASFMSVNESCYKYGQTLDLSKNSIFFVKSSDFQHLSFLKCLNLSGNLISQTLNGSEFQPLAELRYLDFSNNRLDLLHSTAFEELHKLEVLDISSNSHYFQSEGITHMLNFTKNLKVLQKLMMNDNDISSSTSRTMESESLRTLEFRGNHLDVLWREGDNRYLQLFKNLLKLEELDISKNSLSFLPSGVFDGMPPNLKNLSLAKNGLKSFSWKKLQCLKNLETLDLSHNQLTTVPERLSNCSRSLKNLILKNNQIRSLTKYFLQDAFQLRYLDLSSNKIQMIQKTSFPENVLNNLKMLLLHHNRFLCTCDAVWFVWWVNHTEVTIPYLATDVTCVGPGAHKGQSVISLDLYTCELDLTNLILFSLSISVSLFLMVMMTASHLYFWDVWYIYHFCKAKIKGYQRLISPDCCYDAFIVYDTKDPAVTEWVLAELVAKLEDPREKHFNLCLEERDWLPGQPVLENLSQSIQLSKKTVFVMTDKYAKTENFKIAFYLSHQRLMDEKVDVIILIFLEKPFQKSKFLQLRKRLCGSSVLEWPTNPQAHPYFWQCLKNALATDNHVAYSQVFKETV

Homo sapiens [21] = species on record: Homo sapiens; test: Stimulation of immune response in human pDC assessed as induction of IFNalpha production at 150 ug/ml after 24 hrs; assay type: functional

remaining at 10 min [1]: 90% | Activity [15]: inactive | Activity [20]: inactive
Structure (SMILES): Nc1ncnc2c1ncn2[C@@H]1O[C@H](CO)[C@@H](OP(=O)(S)OC[C@H]2O[C@@H](n3cnc4c(N)ncnc43)[C@H](O)[C@@H]2OP(=O)(S)OC[C@H]2O[C@@H](n3cnc4c(N)ncnc43)[C@H](O)[C@@H]2OP(=O)(S)OC[C@H]2O[C@@H](n3cnc4c(N)ncnc43)[C@H](O)[C@@H]2OP(=O)(S)OC[C@H]2O[C@@H](n3cnc4c(N)ncnc43)[C@H](O)[C@@H]2OP(=O)(S)OC[C@H]2O[C@@H](n3cnc4c(N)ncnc43)[C@H](O)[C@@H]2OP(=O)(S)OC[C@H]2O[C@@H](n3cnc4c(N)ncnc43)[C@H](O)[C@@H]2OP(=O)(S)OC[C@H]2O[C@@H](n3cnc4c(N)ncnc43)[C@H](O)[C@@H]2OP(=O)(S)OC[C@H]2O[C@@H](n3cnc4c(N)ncnc43)[C@H](O)[C@@H]2OP(=O)(S)OC[C@H]2O[C@@H](n3cnc4c(N)ncnc43)[C@H](O)[C@@H]2OP(=O)(S)OC[C@H]2O[C@@H](n3cnc4c(N)ncnc43)[C@H](O)[C@@H]2OP(=O)(S)OCC(O)COP(=O)(S)O[C@H]2[C@@H](O)[C@H](n3cnc4c(N)ncnc43)O[C@@H]2COP(=O)(S)O[C@H]2[C@@H](O)[C@H](n3cnc4c(N)ncnc43)O[C@@H]2COP(=O)(S)O[C@H]2[C@@H](O)[C@H](n3cnc4c(N)ncnc43)O[C@@H]2COP(=O)(S)O[C@H]2[C@@H](O)[C@H](n3cnc4c(N)ncnc43)O[C@@H]2COP(=O)(S)O[C@H]2[C@@H](O)[C@H](n3cnc4c(N)ncnc43)O[C@@H]2COP(=O)(S)O[C@H]2[C@@H](O)[C@H](n3cnc4c(N)ncnc43)O[C@@H]2COP(=O)(S)O[C@H]2[C@@H](O)[C@H](n3cnc4c(N)ncnc43)O[C@@H]2COP(=O)(S)O[C@H]2[C@@H](O)[C@H](n3cnc4c(N)ncnc43)O[C@@H]2COP(=O)(S)O[C@H]2[C@@H](O)[C@H](n3cnc4c(N)ncnc43)O[C@@H]2COP(=O)(S)O[C@H]2[C@@H](O)[C@H](n3cnc4c(N)ncnc43)O[C@@H]2COP(=O)(S)O[C@H]2[C@@H](O)[C@H](n3cnc4c(N)ncnc43)O[C@@H]2CO)[C@H]1O (some centres not stated)
Activity (PBMC [2]): inactive | Activity (PBMC [3]): inactive | Activity (Homo sapiens [4]): inactive | Activity (PBMC [5]): inactive | Activity (PBMC [6]): inactive | Activity (PBMC [7]): inactive | Activity (PBMC [8]): inactive | Activity (PBMC [9]): inactive | Activity (PBMC [10]): inactive | Activity (Homo sapiens [11]): inactive | Activity (Homo sapiens [12]): inactive | Activity (PBMC [13]): inactive | Activity (Mus musculus): inactive | Activity (PBMC [14]): inactive | Activity (Homo sapiens [16]): inactive | Activity (PBMC [17]): inactive | Activity (Homo sapiens [18]): inactive | Activity (PBMC [19]): inactive | Activity (Homo sapiens [21]): inactive
